Source: ChEMBL document CHEMBL1857833, “Screening and optimization of specific chemical series against human African Trypanosomiasis (HAT)”
Values after ≈ are worked out from the molar mass of the structure shown. Values joined by “and” are separate entries in the source; they are usually repeats but may differ in a detail not shown here. Identical values can stand only once.

Experiments:
Trypanosoma brucei = test: DNDI: Inhibition of Human African Trypanosomiasis, SBRI 427, in vitro; assay type: functional, organism-based
[1] = DNDI: Cytotoxicity against L929 mouse fibroblasts, 72 hour.; assay type: toxicity, cell-based; conditions: mouse, L929 mouse fibroblasts
[2] = DNDI: Cytotoxicity against L929 mouse fibroblasts, CYTO-SP, 24 hour; assay type: toxicity, cell-based; conditions: mouse, L929 mouse fibroblasts
[3] = Trypanosoma brucei, SBRI 427, read-out: IC50

SMILES	IC50 (Trypanosoma brucei; [3]) [µg/mL]	IC50 at 72 h [1] [µg/mL]	IC50 at 24 h [2] [µg/mL]	IC50 (Trypanosoma brucei)
CCCCCC(C)NCc1coc(-c2ccccc2O)n1 (stereo not drawn)	3.56 (≈ 12.3 µM)	7.32 (≈ 25.4 µM)	24 (≈ 83.2 µM)	–
CCCCCC(C)NCc1coc(-c2cccc(F)c2)n1 (stereo not drawn)	2.14 (≈ 7.37 µM)	7.19 (≈ 24.8 µM)	19 (≈ 65.4 µM)	–
C[C@@H]1[C@H]2C[C@@H](C[C@H]1N/C(=N\O)c1ccccc1-c1ccccc1)C2(C)C	5 (≈ 14.3 µM)	–	17 (≈ 48.8 µM)	–
O/N=C(/c1ccccc1-c1ccccc1)n1ccnc1	> 5	–	> 50	–
CCOc1ccccc1CN/C(=N\O)c1cccnc1Oc1ccc(C(C)C)cc1	1.12 (≈ 2.76 µM)	–	38.6 (≈ 95.1 µM)	–
Cc1cc(C)cc(Oc2ccc(/C(=N/O)NC3CCC3)cn2)c1	0.59 (≈ 1.89 µM)	–	> 50	–
C[C@@H]1[C@@H](N/C(=N\O)c2ccccc2-c2ccccc2)C[C@H]2C[C@@H]1C2(C)C	> 5	–	17 (≈ 48.8 µM)	–
Cc1cc(C)cc(Oc2ccc(/C(=N/O)NC3CCCC3)cn2)c1	0.59 (≈ 1.81 µM)	–	< 50	–
CCCOc1ccc(-c2nc(CNC3CCCCCC3)co2)cc1	1.25 (≈ 3.81 µM)	< 3.13	15.8 (≈ 48.1 µM)	–
CCc1ccc(Oc2ncccc2/C(=N/O)NCc2ccccc2C)cc1	1.07 (≈ 2.96 µM)	–	> 50	–
CCOc1ccc(-c2nc(CNC3C[C@@H]4C[C@H]([C@@H]3C)C4(C)C)co2)cc1 (stereo partly drawn)	> 5	3.64 (≈ 10.3 µM)	> 50	–
CCOc1ccc(-c2nc(CCl)co2)cc1	2.19 (≈ 9.21 µM)	25.9 (≈ 109 µM)	> 5	–
CSc1ccccc1Oc1ncccc1/C(=N/O)NCC1CC1	–	–	> 50	0.53 µg/mL and < 0.19 µg/mL
COc1ccccc1Oc1ncccc1C(=N)NC1CCCCC1	> 5	–	> 50	–
CC(C)c1ccc(Oc2ncccc2/C(=N/O)NCc2cccs2)cc1	0.89 (≈ 2.42 µM)	–	> 50	–
CN(/C(=N\O)c1cccnc1OCc1cccc(F)c1)c1ccccc1	1.09 (≈ 3.1 µM)	–	> 50	–
COc1ccccc1/C(N)=N/O	> 5	–	> 50	–
COc1ccccc1-c1noc(C(C)C)n1	> 5	–	> 50	–
CCCC(CCC)NCc1coc(-c2ccc(OCC)cc2)n1	–	6.37 (≈ 20.1 µM)	> 50	–
O/N=C(\NC1CCCCC1)c1ccnc(Oc2cccc3c2CCCC3)c1	0.83 (≈ 2.27 µM)	–	48.4 (≈ 132 µM)	–
CC1CCCC(NCc2coc(-c3ccccc3Br)n2)C1C (stereo not drawn)	–	–	> 50	2.06 µg/mL and 0.92 µg/mL
CCCNC/C(=N\O)c1ccc(OC)cc1	> 5	–	> 50	–

SMILES	IC50 (Trypanosoma brucei; [3]) [µg/mL]	IC50 at 72 h [1] [µg/mL]	IC50 at 24 h [2] [µg/mL]	IC50 (Trypanosoma brucei)
CCCCCC(C)NCc1coc(-c2ccc3ccccc3c2)n1 (stereo not drawn)	1.09 (≈ 3.38 µM)	5.65 (≈ 17.5 µM)	17 (≈ 52.7 µM)	–
COc1cccc(/C(=N/O)N(C(=O)C(C)C)C(=O)C(C)C)c1	> 5	–	> 50	–
CCOc1ccccc1CN/C(=N\O)c1cccnc1Oc1ccc(CC)cc1	0.76 (≈ 1.94 µM)	–	> 50	–
CCOc1ccc(-c2nc(CN(C)Cc3coc(-c4ccc(OCC)cc4)n3)co2)cc1	> 5	> 50	> 50	–
O/N=C(/NC1CCCCC1)c1ccc2ccccc2c1	> 5	–	21.1 (≈ 78.7 µM)	–
O/N=C(\NC1CCCCC1)c1cccc(-c2ccccc2)c1	2.6 (≈ 8.83 µM)	–	35 (≈ 119 µM)	–
CCCCc1ccc(-c2nc(C)co2)cc1	> 5	42.1 (≈ 195 µM)	> 50	–
CCCOc1ccc(-c2nc(CNC3[C@H]4C[C@@H]5C[C@@H](C[C@H]3C5)C4)co2)cc1 (stereo partly drawn)	0.69 (≈ 1.88 µM)	3.67 (≈ 10 µM)	> 50	–
CON(C)C(=O)c1ccccc1-c1ccccc1	> 5	–	> 50	–
CCC(CC)N/C(=N\O)c1cccnc1OCC1CCCCC1	0.44 (≈ 1.38 µM)	–	33.5 (≈ 105 µM)	–
CCc1ccc(Oc2ncccc2/C(=N/O)NCc2ccccc2)cc1	1.08 (≈ 3.11 µM)	–	> 50	–
CCC(C)(C)N/C(=N\O)c1cccnc1Oc1ccc2ccccc2c1	0.49 (≈ 1.4 µM)	–	> 50	–
Cc1cc(C)cc(Oc2ccc(/C(=N/O)NC3CCCCC3)cn2)c1	1.08 (≈ 3.18 µM)	–	> 50	–
CCOc1ccc(-c2nc(CNCc3ccccc3)co2)cc1	> 5	18.1 (≈ 58.6 µM)	> 50	–
O/N=C(\NCC1CC1)c1cccnc1Oc1ccc2ccccc2c1	0.62 (≈ 1.86 µM)	–	> 50	–
Cc1cc(C)cc(Oc2ccc(/C(=N/O)NCC(C)(C)C)cn2)c1	0.77 (≈ 2.35 µM)	–	> 50	–
COc1ccccc1Oc1ncccc1C(=N)N	> 5	–	> 50	–
CCCCCC(C)NCc1coc(-c2ccccc2Cl)n1 (stereo not drawn)	2.42 (≈ 7.89 µM)	7.17 (≈ 23.4 µM)	17 (≈ 55.4 µM)	–
CC1CCC(C)N1/C(=N\O)c1ccc(Oc2ccc3ccccc3c2)nc1 (stereo not drawn)	0.91 (≈ 2.52 µM)	–	> 50	–
CCCCc1ccc(-c2nc(-c3ccccc3)co2)cc1	> 5	26.6 (≈ 96 µM)	> 50	–
CC1CC(N/C(=N\O)c2cccnc2Oc2ccc(C(C)C)cc2)CC(C)(C)C1 (stereo not drawn)	0.54 (≈ 1.37 µM)	–	21.9 (≈ 55.4 µM)	–
O/N=C(\NC1CCCCC1)c1ccc(Br)cc1	> 5	–	38 (≈ 128 µM)	–

SMILES	IC50 (Trypanosoma brucei; [3]) [µg/mL]	IC50 at 72 h [1] [µg/mL]	IC50 at 24 h [2] [µg/mL]	IC50 (Trypanosoma brucei)
CCOc1ccc(-c2nc(CN[C@]34C[C@H]5C[C@H](C[C@H](C5)C3)C4)co2)cc1	> 5	28.4 (≈ 80.5 µM)	> 50	–
COc1ccc(/C(=N/O)NCC2CCCCC2)cc1	3.41 (≈ 13 µM)	–	> 50	–
COc1ccc(/C(CO)=N/O)cc1	> 5	–	> 50	–
COc1cccc(/C(N)=N/O)c1	> 5	–	> 50	–
CC(C)c1ccc(Oc2ncccc2/C(=N/O)NCc2ccco2)cc1	0.96 (≈ 2.73 µM)	–	> 50	–
COc1ccc(C(=O)NC2CCCCC2)cc1	> 5	–	> 50	–
COCC(C)N/C(=N\O)c1ccnc(Oc2ccc(F)c(Cl)c2)c1 (stereo not drawn)	0.82 (≈ 2.32 µM)	–	> 50	–
COc1cccc(-c2noc(C(C)C)n2)c1	> 5	–	> 50	–
COc1ccc(-c2noc(C(C)C)n2)cc1	> 5	–	> 50	–
COc1ccc(C(=O)N(C)OC)cc1	> 5	–	> 50	–
Cc1cc(C)cc(Oc2ccc(/C(=N/O)NCC3CC3)cn2)c1	1.02 (≈ 3.28 µM)	–	> 50	–
CCCCCC(C)NCc1coc(-c2ccccc2C)n1 (stereo not drawn)	4.1 (≈ 14.3 µM)	3.6 (≈ 12.6 µM)	16 (≈ 55.9 µM)	–
OC/C(=N\O)c1ccccc1	> 5	–	> 50	–
CC(C)c1ccc(Oc2ncccc2/C(=N/O)NCC2CCCO2)cc1 (stereo not drawn)	0.54 (≈ 1.52 µM)	–	> 50	–
CC(C)c1ccc(Oc2ncccc2/C(=N/O)NC2CCc3ccccc32)cc1 (stereo not drawn)	0.98 (≈ 2.53 µM)	–	45.1 (≈ 116 µM)	–
CCN(CC)/C(=N\O)c1ccccc1-c1ccccc1	> 5	–	> 50	–
COc1ccc(C(=O)NC2CCCCC2)c(OC)c1	> 5	–	> 50	–
O/N=C(\NC1CCCCC1)c1cccc(Br)c1	3.28 (≈ 11 µM)	–	39 (≈ 131 µM)	–
COc1cc(C)ccc1Oc1ncccc1C(=N)N	> 5	–	> 50	–
CCCCCC(C)NCc1cc(-c2ccccc2)nn1C (stereo not drawn)	3.38 (≈ 11.8 µM)	12.7 (≈ 44.5 µM)	50 (≈ 175 µM)	–
CCCCCC(C)NCc1coc(-c2ccc(F)cc2)n1 (stereo not drawn)	2.71 (≈ 9.33 µM)	7.1 (≈ 24.5 µM)	17 (≈ 58.5 µM)	–
CCc1ccc(N/C(=N/O)c2ccccc2-c2ccccc2)cc1	5 (≈ 15.8 µM)	–	15.6 (≈ 49.4 µM)	–

SMILES	IC50 (Trypanosoma brucei; [3]) [µg/mL]	IC50 at 72 h [1] [µg/mL]	IC50 at 24 h [2] [µg/mL]	IC50 (Trypanosoma brucei)
CC(C)COc1ncccc1/C(=N/O)NC1CCCC1	0.96 (≈ 3.46 µM)	–	> 50	–
O/N=C(\NC1CCCCC1)c1ccccc1F	3.92 (≈ 16.6 µM)	–	> 50	–
CCCCCC(C)NCc1coc(-c2cccc3ccccc23)n1 (stereo not drawn)	1.14 (≈ 3.54 µM)	6.56 (≈ 20.3 µM)	16 (≈ 49.6 µM)	–
O/N=C(/c1ccccc1-c1ccccc1)N1CCCCCCC1	> 5	–	> 50	–
CCOc1ccccc1-c1nc(CNC2C[C@@H]3C[C@H]([C@H]2C)C3(C)C)co1 (stereo partly drawn)	1.05 (≈ 2.96 µM)	–	27.8 (≈ 78.4 µM)	2.05 µg/mL (≈ 5.78 µM)
COc1ccc(/C(CNC(C)C)=N/O)cc1	> 5	–	> 50	–
CCOc1ccc(-c2nc(CNC3CC4CCC3C4)co2)cc1 (stereo not drawn)	4.1 (≈ 13.1 µM)	4.62 (≈ 14.8 µM)	35 (≈ 112 µM)	–
COc1ccccc1/C(=N/O)N(C(=O)C(C)C)C(=O)C(C)C	> 5	–	> 50	–
O/N=C(\NC1CCCCC1)c1cccc(F)c1	> 5	–	> 50	–
CCCCc1ccc(-c2nc(C(F)(F)F)co2)cc1	> 5	43.8 (≈ 163 µM)	> 50	–
CCCOc1ccc(-c2nc(CNC3CC(C)CC(C)(C)C3)co2)cc1 (stereo not drawn)	1.37 (≈ 3.84 µM)	< 3.13	15.9 (≈ 44.5 µM)	–
CCCOc1ccc(-c2nc(CNC[C@@H]3CC[C@H]4C[C@@H]3C4(C)C)co2)cc1	0.74 (≈ 2.01 µM)	< 3.13	16 (≈ 43.5 µM)	–
C[C@H]1C(NCc2coc(-c3ccccc3Br)n2)C[C@@H]2C[C@H]1C2(C)C (stereo partly drawn)	1.22 (≈ 3.13 µM)	–	43.2 (≈ 111 µM)	0.94 µg/mL (≈ 2.41 µM)
O/N=C(\NC1CCCCC1)c1ccccc1Br	> 5	–	> 50	–
CCCCCC(C)NCc1coc(-c2cccc(C)c2)n1 (stereo not drawn)	3.33 (≈ 11.6 µM)	7.13 (≈ 24.9 µM)	16 (≈ 55.9 µM)	–
CCCCc1ccc(-c2nc(C(C)(C)C)co2)cc1	> 5	28.7 (≈ 112 µM)	> 50	–
COc1ccc(/C(=N/O)N(C(=O)C(C)C)C(=O)C(C)C)cc1	> 5	–	> 50	–
CCCCCC(C)NCc1coc(-c2ccccc2F)n1 (stereo not drawn)	1.82 (≈ 6.27 µM)	3.59 (≈ 12.4 µM)	13 (≈ 44.8 µM)	–
CN(/C(=N\O)c1cccnc1OCc1ccccc1F)c1ccccc1	1.06 (≈ 3.02 µM)	–	> 50	–
COc1ccc(C(=N)NO)cc1	> 5	–	> 50	–
